From patent US20150218172A1, “Pyrrolo[2,3-D]Pyrimidine Tropomyosin-Related Kinase Inhibitors” (PFIZER LIMITED, priority 2012, published 2015)
pIC50: −log10 of the molar value.

Biological target: T1, TrkA (Homo sapiens, UniProt P04629)
T1 construct: aa 441-796; His; purchased Invitrogen PV3144
Assay: Isolated TRK enzyme assay (HTRF KinEASE-TK kit), PV3144 TrkA enzyme assay
Format: biochemical
Conditions: PV3144 TrkA enzyme assay, recombinant His-tagged cytoplasmic domain aa 441-796, 4 nM enzyme, 40 uM ATP; arithmetic mean where more than one reading; read-out: Trka enzyme (IC50)
Description: Isolated TRK Enzyme assays use the HTRF KinEASE-TK kit (Cisbio Cat#62TK0PEJ) with recombinant His-tagged cytoplasmic domains of each TRK receptor sourced from Invitrogen (see table below). This activity-assay measures the phosphorylation of tyrosine residues within a substrate from the HTRF kit which has been validated by Cisbio for a variety of tyrosine kinases including the TRK receptors.
0.5 mM stock solutions of test compounds are prepared and serially diluted in 100% DMSO. A standard curve using the compound of Example 135 disclosed in WO2005/116035 of 150 uM is also prepared on each test plate. High percentage effect (HPE) is defined by 150 uM (using the compound of Example 135 as disclosed in WO2005/116035) and 0% effect (ZPE) is defined by 100% DMSO. Greiner low volume black plates containing 0.2 ul of serially diluted compound, standard and HPE/ZPE are created using the Bravo nanolitre dispenser.
1X enzyme buffer is prepared from 5X Enzymatic Buffer from the Cisbio KinEASE TK kit using MilliQ water. The buffer is then supplemented with 10 mM MgCl and 2 mM DTT (both from Sigma). In the case of TRKB, the buffer is also supplemented with 125 nM Supplement Enzymatic Buffer (SEB) from the Cisbio kit.
2X FAC of enzyme and 2X FAC ATP diluted in 1X complete enzyme buffer is incubated at room temperature for 20 minutes to preactivate the enzyme. Following this preactivation step, 5 ul/well of enzyme+ATP mix is added using a Multidrop Micro to the assay plate, spotted with 0.2 ul 100% DMSO compound. This is left for 20 mins at room temperature before adding 5 ul of 2 uM TK-substrate-Biotin (from the Cisbio kit) diluted in 1X enzyme buffer (1 uM FAC) using the Multidrop Micro. The reaction is incubated at room temperature for the optimized assay reaction time (see table). The reaction is stopped by adding 10 ul/well HTRF Detection Buffer containing 0.25 uM Streptavidin-XL665 (0.125 uM FAC) and 1:200 TK Antibody-Cryptate using a Multidrop.
After the Detection Reagent addition, plates are covered and incubated at room temperature for 60 minutes. HTRF signal is read using an Envision reader, measured as a ratio of emissions at two different wavelengths, 620 nm and 665 nm. […] Test compound data are expressed as percentage inhibition defined by HPE and ZPE values for each plate. Percentage inhibition in the presence of test compound is plotted against compound concentration on a log scale to determine an IC50 from the resultant sigmoid curve.
Below are TrkA IC50 data generated using the PV3144 TrkA enzyme assay. Where more than one reading was taken, the arithmetic mean is presented.

T1 sequence (P04629 441-796): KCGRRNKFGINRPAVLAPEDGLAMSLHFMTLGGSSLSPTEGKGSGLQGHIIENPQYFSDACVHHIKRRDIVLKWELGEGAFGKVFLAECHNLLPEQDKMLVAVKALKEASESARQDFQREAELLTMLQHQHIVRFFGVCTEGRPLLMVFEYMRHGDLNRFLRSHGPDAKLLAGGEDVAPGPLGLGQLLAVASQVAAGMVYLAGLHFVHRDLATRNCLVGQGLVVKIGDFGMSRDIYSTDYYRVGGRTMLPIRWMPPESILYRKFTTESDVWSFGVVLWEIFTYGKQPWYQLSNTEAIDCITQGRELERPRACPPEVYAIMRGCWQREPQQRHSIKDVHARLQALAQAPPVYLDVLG

pIC50 | Compound
6.64 | C[C@@H](CO)n1cc(C(=O)c2cc(NC(=O)Cc3ccc(Cl)cn3)ccn2)c2cncnc21 [Example 13, 2-(5-chloropyridin-2-yl)-N-[2-({7-[(2S)-1-hydroxypropan-2-yl]-7H-pyrrolo[2,3-d]pyrimidin-5-yl}carbonyl)pyridin-4-yl]acetamide]
6.88 | C[C@@H](CO)n1cc(C(=O)c2cc(NC(=O)Cn3ccc(C(F)(F)F)n3)ccn2)c2cncnc21 [Example 14, N-[2-({7-[(2S)-1-hydroxypropan-2-yl]-7H-pyrrolo[2,3-d]pyrimidin-5-yl}carbonyl)pyridin-4-yl]-2-[3-(trifluoromethyl)-1H-pyrazol-1-yl]acetamide]
6.86 | C[C@H](CO)n1cc(C(=O)c2cc(NC(=O)Cc3ccc(F)cn3)ccn2)c2cncnc21 [Example 27, 2-(5-fluoropyridin-2-yl)-N-[2-({7-[(2R)-1-hydroxypropan-2-yl]-7H-pyrrolo[2,3-d]pyrimidin-5-yl}carbonyl)pyridin-4-yl]acetamide]
7.00 | CC(CO)n1cc(C(=O)c2ccnc(NC(=O)Cc3ccc(C#N)cc3)c2)c2cncnc21 (racemic) [Example 32, 2-(4-cyanophenyl)-N-(4-{[7-(1-hydroxypropan-2-yl)-7H-pyrrolo[2,3-d]pyrimidin-5-yl]carbonyl}pyridin-2-yl)acetamide]
6.77 | CC(C)n1cc(C(=O)c2ccnc(NC(=O)Cc3ccccc3)c2)c2cncnc21 [Example 149, 2-phenyl-N-(4-{[7-(propan-2-yl)-7H-pyrrolo[2,3-d]pyrimidin-5-yl]carbonyl}pyridin-2-yl)acetamide]
7.59 | O=C(Cc1ccc(Cl)cc1)Nc1cc(C(=O)c2cn(CCO)c3ncncc23)ccn1 [Example 136, 2-(4-chlorophenyl)-N-(4-{[7-(2-hydroxyethyl)-7H-pyrrolo[2,3-d]pyrimidin-5-yl]carbonyl}pyridin-2-yl)acetamide]
7.12 | CC(C)n1cc(C(=O)c2cc(NC(=O)Cc3cccc(S(C)(=O)=O)c3)ccn2)c2cnc(N)nc21 [Example 88, N-(2-{[2-amino-7-(propan-2-yl)-7H-pyrrolo[2,3-d]pyrimidin-5-yl]carbonyl}pyridin-4-yl)-2-[3-(methylsulfonyl)phenyl]acetamide]
6.79 | O=C(Cc1ccc(C(F)(F)F)cc1)Nc1ccnc(C(=O)c2cn(C(CO)CO)c3ncncc23)c1 [Example 93, N-(2-{[7-(1,3-dihydroxypropan-2-yl)-7H-pyrrolo[2,3-d]pyrimidin-5-yl]carbonyl}pyridin-4-yl)-2-[4-(trifluoromethyl)phenyl]acetamide]
6.95 | O=C(Cc1ccc(OC(F)(F)F)cc1)Nc1cc(C(=O)c2cn(CCO)c3ncncc23)ccn1 [Example 144, N-(4-{[7-(2-hydroxyethyl)-7H-pyrrolo[2,3-d]pyrimidin-5-yl]carbonyl}pyridin-2-yl)-2-[4-(trifluoromethoxy)phenyl]acetamide]
7.10 | C[C@H](CO)n1cc(C(=O)c2cc(NC(=O)Cc3ccc(C#N)cc3)ccn2)c2cncnc21 [Example 23, 2-(4-cyanophenyl)-N-[2-({7-[(2R)-1-hydroxypropan-2-yl]-7H-pyrrolo[2,3-d]pyrimidin-5-yl}carbonyl)pyridin-4-yl]acetamide]
6.27 | N#Cc1ccc(CC(=O)Nc2cc(C(=O)c3cn(C(CO)CO)c4ncncc34)ccn2)cc1 [Example 114, 2-(4-cyanophenyl)-N-(4-{[7-(1,3-dihydroxypropan-2-yl)-7H-pyrrolo[2,3-d]pyrimidin-5-yl]carbonyl}pyridin-2-yl)acetamide]
7.56 | Cc1cc(C)n(CC(=O)Nc2cc(C(=O)c3cn(C(C)(C)C)c4ncncc34)ccn2)n1 [Example 174, N-{4-[(7-tert-butyl-7H-pyrrolo[2,3-d]pyrimidin-5-yl)carbonyl}pyridin-2-yl]-2-(3,5-dimethyl-1H-pyrazol-1-yl)acetamide]
5.97 | CC(C)n1cc(C(=O)c2ccnc(NC(=O)Cn3ccnc3)c2)c2cncnc21 [Example 156, 2-(1H-imidazol-1-yl)-N-(4-{[7-(propan-2-yl)-7H-pyrrolo[2,3-d]pyrimidin-5-yl]carbonyl}pyridin-2-yl)acetamide]
6.93 | Cc1cc(C(=O)c2cn(C(C)C)c3ncncc23)cc(NC(=O)Cc2ccc(C#N)c(C(F)(F)F)c2)n1 [Example 78, 2-[4-cyano-3-(trifluoromethyl)phenyl]-N-(6-methyl-4-{[7-(propan-2-yl)-7H-pyrrolo[2,3-d]pyrimidin-5-yl]carbonyl}pyridin-2-yl)acetamide]
8.18 | CC(C)(CO)n1cc(C(=O)c2cc(NC(=O)Cc3cccc(C(F)(F)F)c3)ccn2)c2cncnc21 [Example 56, N-(2-{[7-(1-hydroxy-2-methylpropan-2-yl)-7H-pyrrolo[2,3-d]pyrimidin-5-yl]carbonyl}pyridin-4-yl)-2-[3-(trifluoromethyl)phenyl]acetamide]
7.46 | CC(C)n1cc(C(=O)c2cc(NC(=O)Cc3ccc(Cl)cn3)ccn2)c2cnc(N)nc21 [Example 86]
7.84 | CC(C)n1cc(C(=O)c2ccnc(NC(=O)Cc3cccc(Cl)c3)c2)c2cncnc21 [Example 155, 2-(3-chlorophenyl)-N-(4-{[7-(propan-2-yl)-7H-pyrrolo[2,3-d]pyrimidin-5-yl]carbonyl}pyridin-2-yl)acetamide]
6.92 | Cc1cc(C(F)(F)F)nn1CC(=O)Nc1ccnc(C(=O)c2cn([C@@H](C)CO)c3ncncc23)c1 [Example 20, N-[2-({7-[(2S)-1-hydroxypropan-2-yl]-7H-pyrrolo[2,3-d]pyrimidin-5-yl}carbonyl)pyridin-4-yl]-2-[5-methyl-3-(trifluoromethyl)-1H-pyrazol-1-yl]acetamide]
7.89 | CC(C)(CO)n1cc(C(=O)c2cc(NC(=O)Cc3ccc(C(F)(F)F)cc3)ccn2)c2cncnc21 [Example 55, N-(2-{[7-(1-hydroxy-2-methylpropan-2-yl)-7H-pyrrolo[2,3-d]pyrimidin-5-yl]carbonyl}pyridin-4-yl)-2-[4-(trifluoromethyl)phenyl]acetamide]
5.82 | O=C(Cc1ccc(OC(F)(F)F)cc1)Nc1ccnc(C(=O)c2cn(C(CO)CO)c3ncncc23)c1 [Example 98, N-(2-{[7-(1,3-dihydroxypropan-2-yl)-7H-pyrrolo[2,3-d]pyrimidin-5-yl]carbonyl}pyridin-4-yl)-2-[4-(trifluoromethoxy)phenyl]acetamide]
7.44 | CC(C)n1cc(C(=O)c2ccnc(NC(=O)Cc3ccc(C#N)cc3)c2)c2cnc(N)nc21 [Example 45, N-(4-{[2-amino-7-(propan-2-yl)-7H-pyrrolo[2,3-d]pyrimidin-5-yl]carbonyl}pyridin-2-yl)-2-(4-cyanophenyl)acetamide]
6.74 | Cc1cc(C)n(CC(=O)Nc2cc(C(=O)c3cn([C@H]4CC[C@H](O)CC4)c4ncncc34)ccn2)n1 [Example 3, 2-(3,5-dimethyl-1H-pyrazol-1-yl)-N-(4-{[7-(trans-4-hydroxycyclohexyl)-7H-pyrrolo[2,3-d]pyrimidin-5-yl]carbonyl}pyridin-2-yl)acetamide]
5.87 | CC(C)n1cc(C(=O)c2ccnc(NC(=O)Cn3cccn3)c2)c2cncnc21 [Example 158, N-(4-{[7-(propan-2-yl)-7H-pyrrolo[2,3-d]pyrimidin-5-yl]carbonyl}pyridin-2-yl)-2-(1H-pyrazol-1-yl)acetamide]
8.33 | Cc1cc(C(F)(F)F)nn1CC(=O)Nc1cc(C(=O)c2cn(C(C)C)c3nc(N)ncc23)ccn1 [Example 46, N-(4-{[2-amino-7-(propan-2-yl)-7H-pyrrolo[2,3-d]pyrimidin-5-yl]carbonyl}pyridin-2-yl)-2-[5-methyl-3-(trifluoromethyl)-1H-pyrazol-1-yl]acetamide]
8.08 | Cc1cc(C(F)(F)F)nn1CC(=O)Nc1ccnc(C(=O)c2cn(C(C)(C)CO)c3ncncc23)c1 [Example 60, N-(2-{[7-(1-hydroxy-2-methylpropan-2-yl)-7H-pyrrolo[2,3-d]pyrimidin-5-yl]carbonyl}pyridin-4-yl)-2-[5-methyl-3-(trifluoromethyl)-1H-pyrazol-1-yl]acetamide]
6.43 | Cc1cc(C(F)(F)F)nn1CC(=O)Nc1ccnc(C(=O)c2cn(C(C)(CO)CO)c3ncncc23)c1 [Example 108, N-(2-{[7-(1,3-dihydroxy-2-methylpropan-2-yl)-7H-pyrrolo[2,3-d]pyrimidin-5-yl]carbonyl}pyridin-4-yl)-2-[5-methyl-3-(trifluoromethyl)-1H-pyrazol-1-yl]acetamide]
